Experimental data as given in patent publication US6962909B2, “Treatment of neovascularization disorders with squalimine” (Genaera Corporation, priority 1995, dated 2005).
In brackets after ≈: the same amount, converted by molar mass.

Key:
NHE1 = NHE1 (Homo sapiens, UniProt P19634); conditions: cited from earlier work
NHE2 = conditions: cited from earlier work
NHE3 = NHE3 (Rattus norvegicus, UniProt P26433); conditions: cited from earlier work
S. aureus = test: Antibiotic activity, MIC; format: cell-based; conditions: Staphylococcus aureus
E. coli = test: Antibiotic activity, MIC; format: cell-based; conditions: Escherichia coli
P. aerug = test: Antibiotic activity, MIC
C. albicans = test: Antibiotic activity, MIC; conditions: Candida albicans
[1] = tested on: L1210 lymphoblastic leukemia cells; test: Mouse model of L1210 leukemia
Procedure: C57B mice were inoculated with L1210 lymphoblastic leukemia cells at an inoculum that causes leukemia in 100% of animals. Mice received compound 1436 at 1, 5, 10 mg/kg every 3 days intraperitoneally.
Of particular interest is the hematological profile determined during the course of treatment. Animals were treated with cisplatin and compound 1436.

[2] = tested on: vitelline capillaries of 3- to 5-day chick embryo; test: Chick embryo vitelline capillary regression assay; format: in vivo; set-up: key to Vascular reactivity (capillary regression): + = Vascular reactivity; 0 = No vascular reactivity; +/− = Equivocal reactivity
Procedure: Using the chick embryo vitelline capillaries assay, compounds were tested for their ability to induce capillary regression. Each compound was applied in 0.1 ml of 15% Ficol 400 and PBS onto the embryo, and vascular regression was assessed after 60 minutes.
The 3-day chick embryo consists of an embryonic disc from which numerous vessels emerge and return, forming a “figure 8”-shaped structure—the embryo in the center with vascular loops extending outward over both poles. […] Following a lag period of around 15 minutes, the constriction of continuity between capillary and secondary vessels, generally on the “venous” side, was observed. Continued pulsatile blood flow progressed, resulting in a “swelling” of the blind tube, followed by a pinching off of the remaining connection and formation of an enclosed vascular sac resembling a “blood island.” This process progressed until only the largest vessels remained intact.

[3] = tested on: Stage 59-60 Xenopus tadpoles; test: Xenopus tadpole assay; format: in vivo, Xenopus laevis; conditions: 10 μg/ml in water, about 1 hour
Text: A newly developed assay employing tadpoles, preferably Xenopus laevis Stages 59-60, were employed to study the effect of a compound by monitoring capillary occlusion in the tadpole's tail. […] The compounds of the invention affect the shape, viability and integrity of the embryonic tissues while not affecting the adult tissues, providing a powerful, highly specific screen. For example, substances that destroy all of the animal's epithelium, both adult and embryonic, could be regarded as toxic.
In this assay, tadpoles are introduced into Petri dishes containing a solution of the test compound in distilled water, preferably about 100 ml. The preferred concentration of the test compound is from about 1 μg/ml to about 10 μg/ml. The volume of liquid is sufficient for the animal to swim freely and drink from the solution. Thus, the effect observed results from oral absorption and subsequent systemic distribution of the agent. If the volume of liquid is not sufficient to permit oral intake, the effects that are observed would result from absorption through the surface epithelium. Thus, this simple assay can identify if an compound has characteristics of oral availability.
After an amount of time, typically about 60 minutes, the occlusion of blood flow through capillaries in the tadpole's tail are observed under an inverted microscope at a magnification of roughly 100×.
The tadpole assay described above provides an advantageous way to determine the pharmacological targets of each steroid when introduced into a mammal, and to determine pharmacological categories into which synthetic compounds belong. In the assay, each of the steroids was dissolved in 100 ml of distilled water at a concentration of 10 μg/ml. Stage 59-60 Xenopus tadpoles were introduced and evaluated by light microscopy and gross observation 1 hour later.

[4] = tested on: PHA-stimulated human lymphocytes; test: Inhibition of mitogen-stimulated growth of human T-cells; format: cell-based; conditions: 72 hours
Procedure: Human heparinized blood, freshly collected, was introduced into tissue culture flasks containing 10 μg/ml phytohaemagglutinin (PHA) in RPMI medium with 10% FCS. Various purified steroids were introduced subsequently at concentrations of 1, 5, and 10 μg/ml. Cultures were incubated for 72 hours, after which time colcemid was added to 1 μg/ml. Cultures were maintained for an additional 2 hours, and cells collected. Mitotic figures were estimated using standard cytochemical techniques, following Giemsa staining.

[5] = mice with 5 × 10^5 L1210 cells ip, cisplatin 8 mg/kg ip, compound 1436 10 mg/kg ip q4d

Chain of NHE1 (P19634 whole entry, species assumed): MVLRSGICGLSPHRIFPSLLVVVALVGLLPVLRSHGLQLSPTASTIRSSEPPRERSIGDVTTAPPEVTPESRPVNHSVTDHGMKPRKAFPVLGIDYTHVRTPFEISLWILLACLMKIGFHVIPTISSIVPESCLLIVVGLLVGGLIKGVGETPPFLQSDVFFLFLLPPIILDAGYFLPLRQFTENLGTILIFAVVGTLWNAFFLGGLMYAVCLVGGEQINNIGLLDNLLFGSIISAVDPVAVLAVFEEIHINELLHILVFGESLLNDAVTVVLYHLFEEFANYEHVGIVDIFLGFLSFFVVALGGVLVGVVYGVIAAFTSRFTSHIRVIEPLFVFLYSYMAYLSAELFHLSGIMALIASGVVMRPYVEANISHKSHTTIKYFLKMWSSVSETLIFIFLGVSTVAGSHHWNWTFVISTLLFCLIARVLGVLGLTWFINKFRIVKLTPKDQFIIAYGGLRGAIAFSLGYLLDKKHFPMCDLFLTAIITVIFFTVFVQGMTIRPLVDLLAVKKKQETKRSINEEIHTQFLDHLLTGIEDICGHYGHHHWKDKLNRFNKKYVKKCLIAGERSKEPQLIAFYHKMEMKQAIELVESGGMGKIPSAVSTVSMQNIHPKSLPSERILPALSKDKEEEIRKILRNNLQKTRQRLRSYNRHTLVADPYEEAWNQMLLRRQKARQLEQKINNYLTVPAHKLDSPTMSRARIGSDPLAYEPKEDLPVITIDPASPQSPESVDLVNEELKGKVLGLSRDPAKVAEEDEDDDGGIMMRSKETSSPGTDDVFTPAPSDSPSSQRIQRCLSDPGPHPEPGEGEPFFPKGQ
Chain of NHE3 (P26433 29-831): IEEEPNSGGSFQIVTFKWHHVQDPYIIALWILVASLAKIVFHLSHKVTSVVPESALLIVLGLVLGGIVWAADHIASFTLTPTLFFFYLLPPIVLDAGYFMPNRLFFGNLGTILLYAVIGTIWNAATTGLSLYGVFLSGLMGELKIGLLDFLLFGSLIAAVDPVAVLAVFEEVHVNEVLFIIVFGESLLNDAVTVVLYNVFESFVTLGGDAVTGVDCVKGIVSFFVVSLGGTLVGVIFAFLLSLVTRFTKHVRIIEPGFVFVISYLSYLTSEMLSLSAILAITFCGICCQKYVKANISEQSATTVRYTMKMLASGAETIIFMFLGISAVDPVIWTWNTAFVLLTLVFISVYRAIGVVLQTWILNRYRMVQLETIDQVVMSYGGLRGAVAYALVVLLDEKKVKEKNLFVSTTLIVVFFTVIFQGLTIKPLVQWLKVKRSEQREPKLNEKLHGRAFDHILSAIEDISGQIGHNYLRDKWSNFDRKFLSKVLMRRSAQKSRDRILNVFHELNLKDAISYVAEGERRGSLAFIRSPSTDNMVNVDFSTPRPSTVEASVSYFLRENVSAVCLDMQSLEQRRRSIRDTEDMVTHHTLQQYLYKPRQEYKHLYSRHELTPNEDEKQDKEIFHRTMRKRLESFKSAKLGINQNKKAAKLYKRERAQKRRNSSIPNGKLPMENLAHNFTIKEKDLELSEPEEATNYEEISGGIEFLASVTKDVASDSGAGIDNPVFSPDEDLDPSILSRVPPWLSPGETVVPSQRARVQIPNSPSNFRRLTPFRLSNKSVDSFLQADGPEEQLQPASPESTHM

Compound	MIC (S. aureus) [µg/mL]	MIC (E. coli) [µg/mL]	MIC (P. aerug) [µg/mL]	MIC (C. albicans) [µg/mL]	also measured
CS(=O)(=O)c1cc(C(=O)NC(=N)N)ccc1N1CCCCC1 [(3-methylsulfonyl-4-piperidinobenzoyl) guanidine methanesulfonate]					Ki (NHE1): 0.16 µM; Ki (NHE2): 5 µM; Ki (NHE3): 650 µM
N=C(N)NC(=O)c1nc(Cl)c(N)nc1N [Amiloride]					Ki (NHE2): 3 µM; Ki (NHE3): 100 µM
CC(C)CCCC(C)[C@H]1CCC2C3CC[C@H]4C[C@H](NCCCNCCCCNCCCN)CC[C@]4(C)C3CC[C@@]21C (some centres unmarked)	8 (≈ 14 µM)	64 to 128 (≈ 112 to 223 µM)	64 (≈ 112 µM)	16 to 32 (≈ 27.9 to 55.8 µM)	
COC(O)CCC(C)[C@H]1CCC2C3C(CC[C@@]21C)[C@@]1(C)CC[C@H](NCCCNCCCCNCCCN)C[C@@H]1C[C@H]3O (some centres unmarked)	2 to 4 (≈ 3.37 to 6.75 µM)	64 (≈ 108 µM)	128 (≈ 216 µM)	16 (≈ 27 µM)	
CC(CC[C@@H](OS(=O)(=O)O)C(C)C)[C@H]1CCC2C3C(CC[C@@]21C)[C@@]1(C)CC[C@H](NCCCNCCCCN)C[C@@H]1C[C@H]3O (some centres unmarked) [drawing 43]	0.5 to 1 (≈ 0.796 to 1.59 µM)	2 to 4 (≈ 3.18 to 6.37 µM)	16 (≈ 25.5 µM)	8 (≈ 12.7 µM)	
CC(C)C(O)CCC(C)[C@H]1CCC2C3C(CC[C@@]21C)[C@@]1(C)CC[C@H](NCCCNCCCCN(C)C)C[C@@H]1C[C@H]3O (some centres unmarked)	8 to 16 (≈ 13.9 to 27.8 µM)	64 (≈ 111 µM)	128 (≈ 222 µM)	64 (≈ 111 µM)	
CC(CCC(=O)O)[C@H]1CCC2C3C(CC[C@@]21C)[C@@]1(C)CC[C@H](NCCCNCCCCN)C[C@@H]1C[C@H]3O (some centres unmarked)	32 (≈ 61.6 µM)	64 (≈ 123 µM)	32 (≈ 61.6 µM)	128 (≈ 246 µM)	
CCCN(C)c1nc(N)c(C(=O)N=C(N)N)nc1Cl [MPA, methylpropylamiloride]					Ki (NHE1): 0.08 µM; Ki (NHE2): 5 µM; Ki (NHE3): 10 µM
CC(COS(=O)(=O)O)C(=O)CCC(C)[C@H]1CCC2C3C(CC[C@@]21C)[C@@]1(C)CC[C@H](NCCCNCCCCN)C[C@@H]1C[C@H]3O (some centres unmarked) [drawing 63]	8 (≈ 12.5 µM)	128 (≈ 199 µM)	128 (≈ 199 µM)	32 (≈ 49.8 µM)	
CC(CCC(=O)O)[C@H]1CCC2C3C(CC[C@@]21C)[C@@]1(C)CC[C@@H](NCCCNCCCCN)C[C@@H]1C[C@H]3O (some centres unmarked)	16 (≈ 30.8 µM)	64 (≈ 123 µM)	32 (≈ 61.6 µM)	32 (≈ 61.6 µM)	
N.N.[Cl][Pt][Cl] [Cisplatin, reference compound]					Hematological profile during treatment ([1]; by day 28): developed a profound anemia by day 28; RBC, Early Time [1, 5]: 9.4 10^6/mm^3; RBC, Late Time [1, 5]: 1.5 10^6/mm^3; WBC, Early Time [1, 5]: 8.1 10^3/mm^3; WBC, Late Time [1, 5]: 18.1 10^3/mm^3
CC(C)CCCC(C)[C@H]1CCC2C3CC[C@H]4C[C@@H](NCCCNCCCCNCCCN)CC[C@]4(C)C3CC[C@@]21C (some centres unmarked) [drawing 47]	16 (≈ 27.9 µM)	128 (≈ 223 µM)	64 (≈ 112 µM)	32 (≈ 55.8 µM)	
CC(CCC(=O)O)[C@H]1CCC2C3CC[C@H]4C[C@H](NCCCNCCCCN)CC[C@]4(C)C3CC[C@@]21C (some centres unmarked)	128 (≈ 254 µM)	32 (≈ 63.5 µM)	64 (≈ 127 µM)	> 256	
dimethylamiloride [DMA]					Ki (NHE1): 0.1 µM; Ki (NHE2): 0.7 µM; Ki (NHE3): 11 µM
COC(=O)CCC(C)[C@H]1CCC2C3C(CC[C@@]21C)[C@@]1(C)CCC(NCCCNCCCCNCCCN)C[C@@H]1C[C@H]3O (some centres unmarked)	4 (≈ 6.77 µM)	32 (≈ 54.2 µM)	64 (≈ 108 µM)	64 (≈ 108 µM)	
C[C@@H](O)C1CCC2C3CC[C@H]4C[C@H](NCCCNCCCCN)CC[C@]4(C)C3CC[C@@]21C (some centres unmarked)	16 (≈ 35.7 µM)	64 (≈ 143 µM)	128 (≈ 286 µM)	128 (≈ 286 µM)	
CC(C)CCCC(C)[C@H]1CCC2C3CC[C@H]4C[C@H](NCCCCN)CC[C@]4(C)C3CC[C@@]21C (some centres unmarked)	4 (≈ 8.72 µM)	> 256	> 256	64 (≈ 139 µM)	
CC(C)CCCC(C)[C@H]1CCC2C3CC[C@H]4C[C@H](NCCCN5CCCCN=C5N)CC[C@]4(C)C3CC[C@@]21C (some centres unmarked)	2 (≈ 3.7 µM)	> 256	> 256	32 (≈ 59.2 µM)	
CC(C)CCCC(C)[C@H]1CCC2C3CC[C@H]4C[C@@H](NCCCCN)CC[C@]4(C)C3CC[C@@]21C (some centres unmarked)	16 (≈ 34.9 µM)	> 256	> 256	> 256	
COC(=O)CCC(C)[C@H]1CCC2C3C(CC[C@@]21C)[C@@]1(C)CC[C@@H](NCCCNCCCCN)C[C@@H]1C[C@H]3O (some centres unmarked)	4 (≈ 7.49 µM)	64 (≈ 120 µM)	64 (≈ 120 µM)	32 (≈ 59.9 µM)	
CC(CCC(=O)O)[C@H]1CCC2C3CC[C@H]4C[C@@H](NCCCNCCCCN)CC[C@]4(C)C3CC[C@@]21C (some centres unmarked)	64 (≈ 127 µM)	32 to 64 (≈ 63.5 to 127 µM)	32 (≈ 63.5 µM)	8 (≈ 15.9 µM)	
CC(COS(=O)(=O)O)C(=O)CCC(C)[C@H]1CCC2C3C(CC[C@@]21C)[C@@]1(C)CC[C@H](NCCCNCCCCN)C[C@@H]1C[C@H]3O (some centres unmarked) [Compound 1360]					Vascular reactivity (capillary regression) ([2]; 1 μg applied, 60 minutes): 0; Effect on blood circulating through the embryonic vessels ([2]; within 20 minutes of application): exhibited a brighter red color; Pharmacological response observed in tadpole [3]: Swelling and lysis of certain erythrocytes occurred, resulting in accumulation of nuclei within certain small vessels of the tail; Pharmacological response observed in tadpole ([3]; listed as compound 1360): extensive vasocclusion occurred within 60 minutes throughout the tail; Inhibition of PHA-stimulated human lymphocytes ([4]; 1 μg/ml): 5 % control; Inhibition of PHA-stimulated human lymphocytes ([4]; 5 μg/ml): 5 % control; Inhibition of PHA-stimulated human lymphocytes ([4]; 10 μg/ml): 5 % control
CC(C)C(O)CCC(C)[C@H]1CCC2C3C(CC[C@@]21C)[C@@]1(C)CC[C@@H](NCCCNCCCCN)C[C@@H]1C[C@H]3O (some centres unmarked)	16 to 32 (≈ 29.2 to 58.4 µM)	128 (≈ 234 µM)	256 (≈ 467 µM)	64 (≈ 117 µM)	
CC(C)C(O)CCC(C)[C@H]1CCC2C3C(CC[C@@]21C)[C@@]1(C)CC[C@H](NCCCNCCCCN)C[C@@H]1C[C@H]3O (some centres unmarked)	4 to 16 (≈ 7.3 to 29.2 µM)	32 (≈ 58.4 µM)	128 (≈ 234 µM)	64 (≈ 117 µM)	
